The values that follow come from patent US9156837B2, “Heterocyclic compound” (Takeda Pharmaceutical Company Limited, priority 2011, dated 2015).

Experiment [1] deals with T1, RORγt (Homo sapiens, UniProt P51449).
T1 sequence (P51449 1-497 isoform P51449-2): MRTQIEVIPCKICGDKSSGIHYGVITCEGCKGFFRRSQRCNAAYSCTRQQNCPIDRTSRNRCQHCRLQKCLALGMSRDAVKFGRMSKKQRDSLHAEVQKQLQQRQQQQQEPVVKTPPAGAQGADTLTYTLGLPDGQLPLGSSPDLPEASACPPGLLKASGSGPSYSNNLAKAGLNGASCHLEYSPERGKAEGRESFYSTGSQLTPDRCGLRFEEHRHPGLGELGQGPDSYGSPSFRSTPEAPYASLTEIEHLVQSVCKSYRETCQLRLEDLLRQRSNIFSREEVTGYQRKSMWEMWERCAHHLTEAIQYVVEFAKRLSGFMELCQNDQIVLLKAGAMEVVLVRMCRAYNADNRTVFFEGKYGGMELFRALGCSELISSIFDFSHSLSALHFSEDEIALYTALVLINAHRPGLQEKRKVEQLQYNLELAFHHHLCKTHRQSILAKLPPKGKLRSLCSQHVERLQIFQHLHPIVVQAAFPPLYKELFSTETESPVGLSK
In words: RORγt binding test (TR-FRET, fluorescent-labeled cholesterol). As to conditions: test compound 1 μM, histidine-tagged RORγt, read-out: binding inhibitory rate of fluorescent-labeled cholesterol to RORγt. How it is done: The binding activity of the test compound to RORγt was measured by a time resolved fluorescence resonance energy transfer method (TR-FRET) utilizing histidine-tagged RORγt, fluorescent-labeled cholesterol (BODIPY-cholesterol, AVIVA), and terbium-labeled anti-histidine tag antibody (Invitrogen). First, a test compound diluted with an assay buffer (20 mM Tris-HCl (pH 7.5), 100 mM NaCl, 1 mM DTT, 0.1% BSA) was added to a 384 well plate by 3 μL. Then, RORγt diluted with an assay buffer to 240 nM was added by 3 μL, after which fluorescent-labeled cholesterol diluted with the assay buffer to 12 μM was added by 3 μL, and the mixture was stood at room temperature for 20 min. Thereafter, a terbium-labeled anti-histidine tag antibody diluted with the assay buffer to 8 nM was added by 3 μL. The mixture was stood at room temperature for 20 min, and fluorescence intensity (excitation wavelength 320 nm, fluorescence wavelength 520 nm, delay time 100 microseconds) was measured by Envision (PerkinElmer).
The results (binding inhibitory rate of fluorescent-labeled cholesterol to RORγt at test compound 1 μM) measured by the above-mentioned method are shown in Table 2.
In general terms: TR-FRET usually uses a lanthanide donor and a delayed reading to cut background.

Experiment [2] concerns the target T1, RORγt. In words: Cofactor recruitment test (Alpha Screen, biotinylated SRC-1 peptide). As to conditions: test compound 1 μM, RORγt and biotinylated SRC-1 peptide, read-out: signal value inhibitory rate. The class given is biochemical. As for the experimental part: Cofactor recruitment test was performed by Alpha Screen (Histidine Detection Kit, PerkinElmer) method. First, a test compound was diluted with an assay buffer (50 mM Tris-HCl (pH 7.5), 50 mM KCl, 1 mM DTT, 0.1% BSA) and added to a 384 well plate by 5 μL. Then, RORγt diluted with an assay buffer to 125 nM was added by 10 μL each, after which solutions of 25 nM biotinylated SRC-1 peptide (biotin-[…]), 12.5 μg/mL acceptor beads and 12.5 μg/mL donor beads prepared with the assay buffer were added by 10 μL each. The mixture was stood in a dark place for 1 hr, and the signal value was measured by Envision (PerkinElmer).

Experiment [3] has as its target T1, RORγt. Description: Jurkat reporter test (human IL-17 ROR response element luciferase). The class given is cell-based. As to conditions: test compound 3 μM; Jurkat cells transfected with IL-17 ROR response element luciferase reporter and RORγt vector; cultured overnight; read-out: luminescence level inhibitory rate. How it is done:
The Jurkat cells used for the reporter test were cultured in a culture medium (RPMI (Invitrogen), 10% FCS (AusGeneX), 100 U/mL penicillin, 100 μg/mL streptomycin). On the day of the test, 4×10^7 cells were recovered by a centrifugal operation (1000 rpm, 5 min.) and suspended in PBS (phosphate buffered saline) (Invitrogen). Thereafter, the cells were recovered again by a centrifugal operation, and suspended in 2 mL of R buffer (NEON transfection kit, Invitrogen). Then, a reporter vector 53 μg wherein a human IL-17 ROR response element was inserted into the upstream of luciferase of pGL 4.28 (Promega), and a vector (27 μg) wherein RORγt sequence was inserted into the downstream of CMV promoter were added to the cell suspension. Gene transfer was performed by Electroporation apparatus (NEON, Invitrogen) under the conditions of pulse voltage 1350 V, interval 10 milliseconds, number of times 3. The cells after gene transfer were suspended in 40 mL of a reaction medium (RPMI, 10% Lipid reduced FCS (HyClone), 10 mM HEPES (pH 7.5), 100 U/mL penicillin, 100 μg/mL streptomycin, 5 μM lovastatin), and plated in a 96 well plate by 90 μL. A test compound diluted with the reaction medium was added by 10 μL, and the cells were cultured overnight in an incubator. Bright-Glo (Promega) was added by 100 μL, and the mixture was stirred at room temperature for 10 min, and the luminescence level was measured by Envision (PerkinElmer).
The results (luminescence level inhibitory rate at test compound 3 μM) measured by the above-mentioned method are shown in Table 4.
In general terms: In a reporter assay the amount or activity of a reporter protein is the signal.

Experiment [4] concerns CD4 positive naive T cells (differentiation into Th17 cells). In words: Mouse Th17 cell differentiation induction test. The class given is cell-based. As to conditions: 96 h; test compound 10 μM; BALB/c mouse CD4 positive naive T cells; 4 days; ELISA; read-out: inhibitory rate (IL-17A in culture supernatant, Th17 differentiation). As for the experimental part:
CD4 positive naive T cells were collected from the spleen cells of BALB/c mice (female, 8-11w) using CD4+CD62L+ T Cell Isolation kit II (Miltenyi Biotec). The CD4 positive naive T cells were plated in a 96 well plate (3×10^5 cells/well), stimulated (37° C. for culture) with anti-mouse CD3ε antibody (10 μg/mL, solid phase) and anti-CD28 antibody (5 μg/mL) for 4 days in the presence of anti-IFN-γ antibody, anti-IL-4 antibody, anti-IL-2 antibody, IL-6, TGF-β and IL-23 to allow for differentiation into Th17 cells. The compound was dissolved in DMSO and then added. The cells were cultured under these conditions for 4 days, the concentration of IL-17A in the culture supernatant obtained by centrifugation was measured by ELISA, and differentiation of the Th17 cells was evaluated.

For experiment [5] the test system is unchanged. Description: Human Th17 cell differentiation induction test. Type of experiment: cell-based. As to conditions: 144 h, test compound 10 μM, 6 days, ELISA, read-out: inhibitory rate (IL-17A in culture supernatant, Th17 differentiation). How it is done: Using peripheral blood mononuclear cells (PBMC) collected from human peripheral blood by a density gradient centrifugation method, CD4 positive naive T cells were collected. The CD4 positive naive T cells were plated in a 96 well plate (2×10^4 cells/well), and stimulated (37° C. for culture) with anti-CD3/28Ab Dynabeads for 6 days in the presence of IL-1β, IL-6, IL-23, TGFβ, anti-IFNγ Ab, anti-IL-4 Ab to allow for differentiation into Th17 cells. The compound was dissolved in DMSO and then added. After culture for 6 days, the concentration of IL-17A in the culture supernatant obtained by centrifugation was measured by ELISA, and differentiation of the Th17 cells was evaluated.

Experiment [6] relates to Peripheral blood mononuclear cells (PBMC). In words: Human PBMC IL17 production test. As to conditions: 72 h; test compound 10 μM; human PBMC stimulated by anti-CD3/CD28 Dynabeads; 3 days; ELISA; read-out: inhibitory rate (IL-17A in culture supernatant, IL-17 production). Type of experiment: cell-based. As for the experimental part:
Peripheral blood mononuclear cells (PBMC) collected from human peripheral blood by a density gradient centrifugation method were stimulated by Dynabeads (registered trade mark; anti-CD3/CD28 antibody) and cultured at 37° C. for 3 days. The compound was dissolved in DMSO and then added. After culture for 3 days under such conditions, the concentration of IL-17A in the culture supernatant obtained by centrifugation was measured by ELISA, and the activity of the compound on IL-17 production was evaluated.

As for `COc1ccc(-c2c(-c3nc(CC(=O)NCC4CCOCC4)cs3)cnn2C(C)(C)C)cc1` [Example 39, 2-{2-[1-tert-butyl-5-(4-methoxyphenyl)-1H-pyrazol-4-yl]-1,3-thiazol-4-yl}-N-(tetrahydro-2H-pyran-4-ylmethyl)acetamide], the inhibition at 1 µM at RORγt [1] worked out at 98.7%; on RORγt [2], 101%. In addition, the inhibition at 3 µM on RORγt [3] was 101%. For the same compound, the values for the inhibition at 10 µM in experiment [4], in experiment [5] and in experiment [6] were 95%, 100% and 91.3%, respectively.
